Results from patent publication US8513271B2, “Pyrimidine compounds as delta opioid receptor modulators” (Janssen Pharmaceutica, NV, priority 2009, dated 2013).
Where “and” joins values, the source holds several entries; their conditions need not be identical. Equal entries are not always repeated. Where two headings read alike, the source gives them in different places.

Key:
delta opioid receptor [1] = biological target: T1, delta opioid receptor (Rattus norvegicus, UniProt P33533); assay: Rat brain delta opioid receptor binding assay; details: rat forebrain, [3H]naltrindole ligand
T1 construct: the forebrains were homogenized in Tris buffer in a Teflon®-glass homogenizer; from tissue; host or cells: forebrain of male Wistar rats, particulate (membrane) preparation
T1 sequence (P33533 whole entry): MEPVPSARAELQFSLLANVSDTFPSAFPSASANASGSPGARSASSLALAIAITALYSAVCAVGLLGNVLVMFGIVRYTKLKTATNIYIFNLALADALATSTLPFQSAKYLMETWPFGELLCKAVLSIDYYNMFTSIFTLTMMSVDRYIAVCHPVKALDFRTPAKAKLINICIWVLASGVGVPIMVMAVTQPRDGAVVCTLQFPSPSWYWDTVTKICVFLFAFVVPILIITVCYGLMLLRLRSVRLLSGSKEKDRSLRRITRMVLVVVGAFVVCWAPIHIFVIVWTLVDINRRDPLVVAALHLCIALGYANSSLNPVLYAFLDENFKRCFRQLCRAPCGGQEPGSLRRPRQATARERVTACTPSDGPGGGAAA

mu opioid receptor = biological target: T2, mu opioid receptor (Rattus norvegicus, UniProt P33535); assay: Rat brain mu opioid receptor binding assay; details: rat forebrain, [3H]DAMGO ligand
T2 construct: the forebrains were homogenized in Tris buffer in a Teflon®-glass homogenizer; from tissue; host or cells: forebrain of male Wistar rats, particulate (membrane) preparation
T2 sequence (P33535 whole entry): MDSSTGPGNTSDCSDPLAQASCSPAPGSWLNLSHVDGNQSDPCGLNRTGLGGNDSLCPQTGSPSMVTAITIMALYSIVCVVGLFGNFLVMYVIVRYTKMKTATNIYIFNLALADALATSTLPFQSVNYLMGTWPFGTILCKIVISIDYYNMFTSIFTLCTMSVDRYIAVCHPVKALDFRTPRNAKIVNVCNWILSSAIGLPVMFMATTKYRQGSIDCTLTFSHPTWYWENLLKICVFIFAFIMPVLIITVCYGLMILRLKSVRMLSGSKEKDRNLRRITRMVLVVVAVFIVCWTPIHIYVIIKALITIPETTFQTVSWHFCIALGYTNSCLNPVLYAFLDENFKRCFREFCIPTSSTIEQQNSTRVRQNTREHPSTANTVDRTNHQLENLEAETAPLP

[2] = test system: CFA-induced paw radiant heat hypersensitivity; assay: CFA-induced paw radiant heat hypersensitivity; format: in vivo, rat; details: for inhibition in vivo at 100 mg/kg: Rattus norvegicus; for maximum % reversal: time not printed (last time point 100 min)
[3] = test system: acetic acid-induced abdominal stretches; assay: Mouse graded abdominal irritant test (GrAIT); format: in vivo; details: 10% Solutol, 30 min pretreatment
delta opioid receptor [4] = biological target: T3, delta opioid receptor (Mus musculus, UniProt P32300); assay: NG108-15, 24-well delta opioid receptor binding assay
T3 construct: NG108-15 cell membranes were purchased from Applied Cell Sciences (Rockville, Md.); host or cells: NG108-15 cell membranes
T3 sequence (P32300 whole entry): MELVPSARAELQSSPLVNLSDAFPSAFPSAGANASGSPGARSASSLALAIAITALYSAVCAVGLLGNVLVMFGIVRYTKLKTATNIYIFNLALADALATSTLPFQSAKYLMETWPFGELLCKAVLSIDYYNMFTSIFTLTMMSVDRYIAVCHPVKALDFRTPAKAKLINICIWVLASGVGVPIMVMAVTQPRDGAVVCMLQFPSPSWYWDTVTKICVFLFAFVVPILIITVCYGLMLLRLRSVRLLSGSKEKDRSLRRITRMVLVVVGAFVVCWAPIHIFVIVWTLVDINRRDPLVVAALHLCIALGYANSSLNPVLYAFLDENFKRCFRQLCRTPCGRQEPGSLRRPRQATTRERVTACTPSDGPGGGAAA

delta opioid receptor [5] = biological target: T3, delta opioid receptor; assay: [35S]GTPγS binding assay in NG108-15 cell membranes (delta opioid functional assay), 200 nM screen; format: biochemical; details: for EC50: GTPγS δ-opioid receptor EC50 (μM), averages if tested more than once; for EC50 / GTPγS δ-opioid receptor Rel Efficacy: NG108-15 cell membranes; for GTPγS δ-opioid receptor Rel Efficacy: relative efficacy from dose response
[6] = biological target: hMOR (mu opioid receptor) (Homo sapiens, UniProt P35372); assay: [35S]GTPγS binding assays in CHO-hMOR cell membranes (mu opioid functional assay); format: biochemical; details: for inhibition at 10 µM: read-out: GTPγS μ-opioid receptor % Inh @10 μM
Chain of hMOR (mu opioid receptor) (P35372 whole entry, looked up): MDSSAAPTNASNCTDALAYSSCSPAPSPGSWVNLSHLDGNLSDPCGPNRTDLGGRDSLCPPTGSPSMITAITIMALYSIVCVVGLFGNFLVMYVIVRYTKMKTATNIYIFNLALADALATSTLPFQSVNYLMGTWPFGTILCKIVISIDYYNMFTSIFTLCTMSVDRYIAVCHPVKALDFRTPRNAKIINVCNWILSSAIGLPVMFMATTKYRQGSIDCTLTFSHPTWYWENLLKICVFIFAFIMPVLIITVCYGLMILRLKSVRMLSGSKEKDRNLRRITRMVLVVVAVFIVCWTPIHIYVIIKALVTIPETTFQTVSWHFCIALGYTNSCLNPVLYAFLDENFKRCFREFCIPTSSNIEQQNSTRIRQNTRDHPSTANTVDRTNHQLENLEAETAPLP

[7] = δ-binding (Naltrindole ligand) Ki
[8] = po, 1 h, read-out: maximum % reversal @ time (min), rat, 100 mg/kg p.o., 0.5% HPMC, @ 60 min
[9] = po, 3 h, read-out: maximum % reversal @ time (min), rat, 100 mg/kg p.o., 0.5% HPMC, @ 180 min, Algos (contract lab) study

COc1ccc(Oc2nc(-c3cncnc3)ncc2NC[C@@H]2CCCN2)cc1 [Cpd 23]
Ki (delta opioid receptor [1]; read-out: δ-binding (Naltrindole ligand) Ki): 1.25 nM | Ki (mu opioid receptor; read-out: μ-binding Ki): 214 nM | ED50 ([2]; po, 2 h, rat, p.o., 0.5% HPMC, doses 10, 30, 100, 300 mg/kg, time point 120 min, read-out: ED50): 35.4 mg/kg | # abdominal stretches (compound) ([3]; 30 mg/kg s.c.): 16.7

COc1ccc(Oc2nc(-c3cccnc3OC)ncc2NC[C@@H]2CCCN2)cc1 [Cpd 26]
Ki (delta opioid receptor [1]; [7]): 8 nM | Ki (mu opioid receptor; read-out: μ-binding Ki): 4050 nM | # abdominal stretches (compound) ([3]; 30 mg/kg s.c.): 16.7

COc1ccc(Oc2nc(-c3cnc4ccccc4c3)ncc2NC[C@@H]2CCCN2)cc1 [Cpd 20]
Ki (delta opioid receptor [1]; [7]): 4.93 nM | Ki (mu opioid receptor; read-out: μ-binding Ki): 146 nM | # abdominal stretches (compound) ([3]; 30 mg/kg s.c.): 19.8

COc1ccc(Oc2nc(-c3cccnc3F)ncc2NC[C@@H]2CCCN2)cc1 [Cpd 24]
Ki (delta opioid receptor [1]; [7]): 1 nM | Ki (mu opioid receptor; read-out: μ-binding Ki): 1060 nM | # abdominal stretches (compound) ([3]; 30 mg/kg s.c.): 16.9

COc1ccc(Oc2nc(-c3ccc(F)nc3)ncc2NC[C@@H]2CCCN2)cc1 [Cpd 25]
Ki (delta opioid receptor [1]; [7]): 0.308 nM | Ki (mu opioid receptor; read-out: μ-binding Ki): 616 nM | # abdominal stretches (compound) ([3]; 30 mg/kg s.c.): 12.3

COc1ccc(Oc2nc(-c3ccc(OC)nc3)ncc2NC[C@@H]2CCCN2)cc1 [Cpd 22]
Ki (delta opioid receptor [1]; [7]): 0.909 nM | Ki (mu opioid receptor; read-out: μ-binding Ki): 1100 nM | # abdominal stretches (compound) ([3]; 30 mg/kg s.c.): 18.6 and 16.0 | # abdominal stretches (compound) ([3]; 100 mg/kg s.c.): 17.4 | # abdominal stretches (compound) ([3]; 300 mg/kg s.c.): 20.3

COc1ccc(Oc2nc(-c3cncc(C#N)c3)ncc2NC[C@@H]2CCCN2)cc1 [Cpd 69]
Ki (delta opioid receptor [4]): 0.139 nM | Ki (delta opioid receptor [1]; [7]): 4.1 nM | Ki (mu opioid receptor; μ-binding Ki): 196 nM | EC50 (delta opioid receptor [5]): 0.0085 µM | GTPγS δ-opioid receptor Rel Efficacy (delta opioid receptor [5]): 1.004 | EC50 [6]: > 10 µM | inhibition at 10 µM [6]: 22.8% | inhibition in vivo at 100 mg/kg [2, 8]: 10.1% | inhibition in vivo at 100 mg/kg ([2]; po, 1 h, read-out: maximum % reversal @ time (min), rat, 100 mg/kg p.o., 0.5% HPMC, @ 60 min, Algos (contract lab) study): 55.7% | inhibition in vivo at 100 mg/kg [2, 9]: 65.4%

COc1ccc(Oc2nc(-c3cccnc3)ncc2NC[C@@H]2CCCN2)cc1 [Cpd 8]
Ki (delta opioid receptor [1]; [7]): 6.19 nM | Ki (mu opioid receptor; μ-binding Ki): 42.8 nM | EC50 (delta opioid receptor [5]): 0.0681 µM | inhibition at 10 µM (delta opioid receptor [5]; read-out: GTPγS δ-opioid receptor % Inh @10 μM): 23.6% | GTPγS δ-opioid receptor Rel Efficacy (delta opioid receptor [5]): 0.848 | inhibition at 10 µM [6]: 2.48% | inhibition in vivo at 100 mg/kg [2, 8]: 46.5% | inhibition in vivo at 100 mg/kg [2, 9]: 75.1% | maximum % reversal ([2]; rat, 30 mg/kg p.o., 0.5% HPMC): 49.0% | maximum % reversal ([2]; rat, 100 mg/kg p.o., 0.5% HPMC): 64.8% | # abdominal stretches (compound) ([3]; 30 mg/kg s.c.): 18.9
